These are literature values, as cited in patent publication US9034354B2, “Bacteriostatic and anti-collagenolytic dental materials through the incorporation of polyacrylic acid modified CuI nanoparticles” (MUSC Foundation for Research Development, priority 2012, dated 2015).

The data set deals with Streptococcus mutans. The note with it: discs of composite resin containing MDPB versus discs without MDPB, in the presence of Streptococcus mutans.

As for `C=C(C)C(=O)OCCCCCCCCCCCC[n+]1ccccc1.[Br-]` [MDPB, 12-methacryloyloxydodecylpyridinium bromide], the “numbers of bacteria recovered from the discs reduced by” value is given as 97%.
